Here are results for 3 compounds from publication PMC4467139, “Garcinol sensitizes human head and neck carcinoma to cisplatin in a xenograft mouse model despite downregulation of proliferative biomarkers” (Oncotarget, 2015).

Where two headings read alike, the source gives them in different places. Peptide text beside a SMILES is read from it. * marks the point of attachment. Cbz = O=C(OCc1ccccc1)*; CH2F = FC*

One series relates to CAL27 xenografts. In words: HNSCC xenograft mouse model, tumor volume. In kind it is in vivo, athymic nu/nu female mice. The conditions noted are these: 4 weeks, garcinol 0.5 mg/kg i.p. five times/week, cisplatin 2 mg/kg i.p. twice weekly. The procedure: (§1) All procedures involving animals were reviewed and approved by NUS Institutional Animal Care and Use Committee. Six-week old athymic nu/nu female mice (Animal Resource Centre, Australia) were implanted subcutaneously in the right flank with CAL27 cells (3 × 10^6 cells/100 μL saline). When tumors have reached 0.25 cm in diameter, the mice were randomized into the following treatment groups (n = 5/group): (I) untreated control (0.1% DMSO, 100 μL daily); (II) garcinol (0.5 mg/kg body weight, suspended in 0.1% DMSO, intraperitoneal [i.p.] injection, five times/week); (III) cisplatin alone (2 mg/kg body weight, suspended in 0.1% DMSO, i.p. injection, twice/week); and (IV) combination (garcinol, 0.5 mg/kg body weight, i.p. injection, five times/week and cisplatin, 2 mg/kg body weight, i.p. injection, twice/week). Therapy was continued for 4 weeks, and the animals were euthanized 24 h after the last dose. Primary tumors were excised and the final tumor volume was calculated using the formula V = L × (W)^2/2 where L is the length and W is the width. Half of the tumor tissue was fixed in formalin and embedded in paraffin for immunohistochemistry (IHC) analysis. The other half was snap frozen in liquid nitrogen and stored at −80°C.

Series [1] is described as follows: Body weight during xenograft experiment. The format is in vivo, athymic nu/nu female mice. Particulars: four week treatment; garcinol 0.5 mg/kg i.p. five times/week, alone or with cisplatin 2 mg/kg i.p. twice weekly. The procedure:
as §1

Series [2] is described as follows: Pharmacokinetics study of garcinol in mice. The format is in vivo. The conditions noted are these: nude, ip, mouse serum; for AUC: read-out: area under the serum concentration-time curve (AUC) at 8 h; for Cmax: read-out: peak serum concentration (Cmax); for Tmax: read-out: time of peak serum concentration post-dose. The procedure: Pharmacokinetics of garcinol was conducted in nude mice by i.p. injection at dose of 0.5 mg/kg or 2 mg/kg. The mice were allowed food and water ad libitum before pharmacokinetics experiment. About 150 μL of blood was taken from facial vein of mice at 10 min, 30 min, 1, 2, 4, 6, and 8 h post-dose. After centrifugation of blood samples at 14,000 rpm at 4°C for 10 min, mouse sera (the supernatant) were transferred into Eppendorf tube. 10 μL of each serum was processed by adding 3-folds excess of acetonitrile-containing isogarcinol, the internal standard followed by vortexing for 1 min. The tube was then centrifuged at 14,000 rpm at 4°C for 10 min. Then 30 μL of the supernatants were transferred into glass inserts (250 μL) with 70 μL of 10 mM ammonia acetate solution. 50 μL of processed serum samples were injected into LC-MS/MS which was carried out under negative electrospray ionization (ESI) and multiple reaction monitoring (MRM) mode. […] The daughter ion monitored for garcinol and isogarcinol was 409 and 335, respectively. SCIEX Analyst software (version 1.4.2) was used for data acquisition and analysis.

Series [3] relates to NF-κB-dependent reporter gene expression in MDA686Tu cells. Kind of series: NF-κB luciferase reporter assay. The format is cell-based, human. The conditions noted are these: 12 h. On the procedure: MDA686Tu cells (1 × 10^4 cells/well) in 96-well were transfected of plasmid with NF-κB responsive […] elements linked to a luciferase reporter gene using lipofectamine® 2000. After transfection for 48 h, indicated concentrations of garcinol were added into the wells for 12 h. Luciferase activity was determined using Bright-Glo™ luciferase assay kit from Promega.
A general note: In a reporter assay the amount or activity of a reporter protein is the signal.

The next series deals with CAL27 cells. In words: MTT cell viability assay. The format is cell-based. Particulars: Homo sapiens, CAL-27, CAL27, 72 h. On the procedure: The inhibitory effect of garcinol against HNSCC cell growth was determined by the MTT dye uptake method as described previously. Briefly, the cells (5 × 10^4 cells/mL) were incubated in triplicate in a 96-well plate in the presence or absence of different concentrations of garcinol in a final volume of 0.2 mL for indicated time intervals at 37 °C. Thereafter, 20 μL MTT solution (5 mg/mL in PBS) was added to each well. After a 2 h incubation at 37°C, 0.1 mL lysis buffer (20% SDS, 50% dimethylformamide) was added after removal of the medium, incubation was continued at 37°C for 1 h, and then the optical density (OD) at 570 nm was measured by the Safire2™ microplate reader (Tecan). […]
www.impactjournals.com/oncotarget/ Oncotarget, Supplementary Materials 2015 […]
Supplementary Figure 1: (A) Garcinol augments the cytotoxic effect of cisplatin in HNSCC cells. CAL27 cells (1 × 10^4 cells/well) were exposed for 48 h to different concentrations of garcinol and cisplatin, and their combination and then subjected to MTT assay to analyze the viability of tumor cells. (B) Assessment on the type of combination relationship was done using the method developed by Chou-Talalay multiple drug effect equation. The degree of synergy was assessed based on CI values, where CI values of > 1.0 implies antagonism, 1.0 implies additive and < 1.0 implies synergistic effect relationships. […]
For orientation: Tetrazolium dyes change colour on reduction, which living cells bring about.

A further series deals with UMSCC1 cells. In words: MTT cell viability assay. Particulars: Homo sapiens, UMSCC1, 72 h. In kind it is cell-based. The procedure: (§2) The inhibitory effect of garcinol against HNSCC cell growth was determined by the MTT dye uptake method as described previously. Briefly, the cells (5 × 10^4 cells/mL) were incubated in triplicate in a 96-well plate in the presence or absence of different concentrations of garcinol in a final volume of 0.2 mL for indicated time intervals at 37 °C. Thereafter, 20 μL MTT solution (5 mg/mL in PBS) was added to each well. After a 2 h incubation at 37°C, 0.1 mL lysis buffer (20% SDS, 50% dimethylformamide) was added after removal of the medium, incubation was continued at 37°C for 1 h, and then the optical density (OD) at 570 nm was measured by the Safire2™ microplate reader (Tecan).

A further series has as its system MDA686LN cells. In words: MTT cell viability assay. In kind it is cell-based. Particulars: Homo sapiens, 72 h. On the procedure: as §2
Series [4] deals with PARP cleavage in CAL27 cells. Kind of series: Western blot of PARP cleavage. The conditions noted are these: Z-VAD-fmk 20 μM together with 15 μM garcinol and 5 μM cisplatin, 48 h. The format is cell-based, human. The procedure:
Vehicle or drug-treated whole-cell extracts were lysed in lysis buffer [250 mM NaCl, 20 mM HEPES, 2 mM EDTA (pH 8.0), 0.5 mM EGTA, 0.1% Triton X-100, 1.5 μg/mL aprotinin, 1.5 μg/mL leupeptin, 1 mM phenylmethylsulfonylfluoride (PMSF), and 1.5 mM NaVO4]. Lysates were then spun at 13,300 rpm for 10 min to remove insoluble material and resolved on a 10% SDS gel. After electrophoresis, the proteins were electrotransferred to a nitrocellulose membrane (Bio-Rad), blocked with Blocking One (Nacalai Tesque, Inc.), and probed with antibodies of interest overnight at 4 °C. The blot was washed with TBS with 0.1% Tween-20, exposed to HRP-conjugated secondary antibodies for 1 h, and finally examined by chemiluminescence using Western Bright Sirius HRP substrate (Advansta).
Supplementary Figure 2: Z-VAD-fmk abrogates the garcinol-induced caspase-3 activation. CAL27 cells (5 × 10^5 cells/mL) were treated with 15 μM garcinol and/or 5 μM cisplatin for 48 h in the absence or presence of 20 μM Z-VAD-fmk, whole-cell extracts were prepared, separated by SDS-PAGE, and subjected to western blot against PARP antibody. The same blot was stripped and reprobed with β-actin antibody to verify equal protein loading.
(also on this page, place not known: www.impactjournals.com/oncotarget/ Oncotarget, Materials 2014 Supplementary Z-V AD-fmk 10 5 Z-V AD-fmk,) […]
(In general: A western blot detects proteins with antibodies after separation by electrophoresis.)

For `N.N.[Cl][Pt][Cl]` [cisplatin, cis-dichloro-diammineplatinum (II)], in the series with CAL27 xenografts, the “reduction of tumor volume” value was determined as 50%.
Usually IC50 stands for the concentration that gives 50% inhibition. Regarding `C=C(C)[C@@H](CC=C(C)C)C[C@@]12C[C@@H](CC=C(C)C)C(C)(C)[C@@](CC=C(C)C)(C(=O)C(C(=O)c3ccc(O)c(O)c3)=C1O)C2=O` [garcinol], the “reduction of tumor volume” value in the series on CAL27 xenografts is reported as 50%. Also, the “body weight of the animals” value in series [1] was “no significant loss of body weight”. The results for the AUC in series [2] (0.5 mg/kg i.p.) and in series [2] (2 mg/kg i.p.) were 4.3 µM·h and 16.9 µM·h, respectively. For the same compound, the results for the Cmax in series [2] (0.5 mg/kg i.p.) and in series [2] (2 mg/kg i.p.) were 1.83 µM and 6.64 µM, respectively. Also, the Tmax in series [2] (0.5 mg/kg i.p.) and in series [2] (2 mg/kg i.p.) was 30 min throughout. Also, the “NF-κB-dependent reporter gene expression” value in series [3] was “significantly abrogate”. Also, the half-maximal inhibitory concentration (IC50) in the series with CAL27 cells worked out at 14.7 µM; in the series with UMSCC1 cells, 11.6 µM; in the series on MDA686LN cells, 13.8 µM.
For `COC(=O)C[C@H](NC(=O)[C@H](C)NC(=O)[C@@H](NC(=O)OCc1ccccc1)C(C)C)C(=O)CF` [Z-VAD-fmk] (Cbz-Val-Ala-Asp(OMe)-CH2F), the “effect on increased PARP cleavage” value in series [4] was “completely blocked”.
